{
  "source": "patent US12564631B2",
  "about": "“Phytosphingosine derivatives as adjuvants in immune stimulation” (Helmholtz-Zentrum für Infektionsforschung GmbH, priority 2020, dated 2026)",
  "test_system": "Ova-specific IgG",
  "assay": "Ova-specific IgG titer (ELISA) in sera of mice immunized with Ovalbumin plus adjuvant",
  "type": "in vivo",
  "conditions": "Ovalbumin 30 μg + adjuvant 15 μg, days 0, 14, 28, sera 14 days after last immunization",
  "protocol": "FIG. 5: Immunization protocol—Administration (intramuscular route) of Ovalbumin with adjuvants. Ovalbumin (30 μg) was co-administered (intramuscular) without or with different adjuvants, such as IPB 2033-2044, c-di-AMP or aßGalCerMPEG (15 μg), on days 0, 14 and 28.\n(§1) FIG. 7: Systemic humoral immune responses induced in mice. Shown is the IgG titer as a readout of systemic humoral immune responses induced in mice after three immunizations with Ovalbumin co-administered with different adjuvants via intramuscular route. Ova-specific IgG titers were measured via ELISA in sera 14 days after the last immunization.\nFIG. 9: Immunization protocol—Administration (intranasal route) of Ovalbumin with adjuvants. Immunization protocol: Mucosal administration (intranasal (i.n.) route) of Ovalbumin (30 μg) co-administered without or with different adjuvants, such as IPB 2033-2044, c-di-AMP or aßGalCerMPEG (15 μg), on days 0, 14 and 28.\nas §1, with “11:” for “7:”, “intranasal” for “intramuscular”, “titers” for “titers were measured via ELISA”\nGroups of mice (3-5 animals) were immunized either intranasal (i.n.) or intramuscular (i.m.) on days 0, 14 and 281 with PBS, or with Ovalbumin (30 μg); the latter were administered alone or with different adjuvants—c-di-AMP, aßGalCerMPEG or IPB 2033 to 2044—made up to a maximal volume of 20 μl (i.n.) or 50 μl (i.m.) in PBS.\nBlood samples were collected on days 1, 14, 28 and 42 via retro-bulbar bleeding. Spleens of vaccinated mice were aseptically removed. For the subsequent methods, cell suspensions of spleens (n=5) of each immunized groups were prepared and erythrocytes were lysed. These splenocyte pools of each group were cultured in the presence of different concentrations of Ovalbumin; controls received 5 μg/mL concanavalin A. The incorporation of [^3H] thymidine into the DNA of proliferating cells was determined using a scintillation counter (Wallac 1450, Micro-Trilux).\nThe Ova-specific antibodies were determined in serum samples by ELISA. Endpoint titers were expressed as reciprocal values of the last dilution, which gave an optical density at 405 nm of two times above the values of the negative controls. For calculation purposes, negative samples were assigned an arbitrary titer of the lowest dilution measured.\nAs described in the protocols above, groups of mice (3-5 animals) were immunized either intranasal (i.n.) or intramuscular (i.m.) on days 0, 14 and 281 with PBS, or with Ovalbumin (30 μg); the latter were administered alone or with different adjuvants—c-di-AMP, aßGalCerMPEG or IPB 2033 to 2044—is shown in FIG. 5-11, intramuscular.",
  "data": [
    {"smiles": "CCCCCCCCCCCCCCCCCCCCCCCCCC(=O)N(CC(=O)NCCC(=O)OC(C)(C)C)[C@@H](CO[C@H]1OC(CO)[C@H](O)C(O)C1O)[C@H](O)[C@H](O)CCCCCCCCCCCCCC", "note": "(stereo partly drawn) [IPB 2043]", "values": [
      {"measurement": "stimulation of antigen specific IgG production compared to control aßGalCerMPEG+ova", "setting": "intramuscular (i.m.), FIG. 7", "result": "improved stimulation"},
      {"measurement": "stimulation of antigen specific IgG production compared to control aßGalCerMPEG+ova", "setting": "intranasal (i.n.), FIG. 11", "result": "improved stimulation"}
    ]},
    {"smiles": "CCCCCCCCCCCCCCCCCCCCCCCCCC(=O)N(CC(=O)NCCOCCOCCOCCOC)[C@@H](CO[C@H]1OC(CO)[C@H](O)[C@H](O)C1O)[C@H](O)[C@H](O)CCCCCCCCCCCCCC", "note": "(stereo partly drawn) [IPB 2034]", "values": [
      {"measurement": "stimulation of antigen specific IgG production compared to control aßGalCerMPEG+ova", "setting": "intramuscular (i.m.), FIG. 7", "result": "improved stimulation"},
      {"measurement": "stimulation of antigen specific IgG production compared to control aßGalCerMPEG+ova", "setting": "intranasal (i.n.), FIG. 11", "result": "at least equivalent"}
    ]},
    {"smiles": "CCCCCCCCCCCCCCCCCCCCCCCCCC(=O)N(CC(=O)NCCN1C(=O)c2cccc3c(N(C)C)ccc(c23)C1=O)[C@@H](CO[C@H]1OC(CO)[C@H](O)C(O)C1O)[C@H](O)[C@H](O)CCCCCCCCCCCCCC", "note": "(stereo partly drawn) [IPB 2041]", "values": [
      {"measurement": "stimulation of antigen specific IgG production compared to control aßGalCerMPEG+ova", "setting": "intramuscular (i.m.), FIG. 7", "result": "at least equivalent"},
      {"measurement": "stimulation of antigen specific IgG production compared to control aßGalCerMPEG+ova", "setting": "intranasal (i.n.), FIG. 11", "result": "improved stimulation"}
    ]},
    {"smiles": "CCCCCCCCCCCCCCCCCCCCCCCCCC(=O)N(CC(=O)NCCCCCCCCCCCCCCCCCC)[C@@H](CO[C@H]1OC(CO)[C@H](O)C(O)C1O)[C@H](O)[C@H](O)CCCCCCCCCCCCCC", "note": "(stereo partly drawn) [IPB 2033]", "values": [
      {"measurement": "stimulation of antigen specific IgG production compared to control aßGalCerMPEG+ova", "setting": "intramuscular (i.m.), FIG. 7", "result": "improved stimulation"},
      {"measurement": "stimulation of antigen specific IgG production compared to control aßGalCerMPEG+ova", "setting": "intranasal (i.n.), FIG. 11", "result": "improved stimulation"}
    ]},
    {"smiles": "CCCCCCCCCCCCCCCCCCCCCCCCCC(=O)N(CC(=O)NCCCCCCN)[C@@H](CO[C@H]1OC(CO)[C@H](O)C(O)C1O)[C@H](O)[C@H](O)CCCCCCCCCCCCCC", "note": "(stereo partly drawn) [IPB 2035]", "values": [
      {"measurement": "stimulation of antigen specific IgG production compared to control aßGalCerMPEG+ova", "setting": "intramuscular (i.m.), FIG. 7", "result": "improved stimulation"},
      {"measurement": "stimulation of antigen specific IgG production compared to control aßGalCerMPEG+ova", "setting": "intranasal (i.n.), FIG. 11", "result": "at least equivalent"}
    ]},
    {"smiles": "CCCCCCCCCCCCCCCCCCCCCCCC(=O)N(CC(=O)NCCCCCCCCCCCCCCCCCC)[C@@H](CO[C@H]1OC(CO)[C@H](O)C(O)C1O)[C@H](O)[C@H](O)CCCCCCCCCCCCCC", "note": "(stereo partly drawn) [IPB 2040]", "values": [
      {"measurement": "stimulation of antigen specific IgG production compared to control aßGalCerMPEG+ova", "setting": "intramuscular (i.m.), FIG. 7", "result": "improved stimulation"},
      {"measurement": "stimulation of antigen specific IgG production compared to control aßGalCerMPEG+ova", "setting": "intranasal (i.n.), FIG. 11", "result": "improved stimulation"}
    ]},
    {"smiles": "CCCCCCCCCCCCCCCCCCCCCCCCCC(=O)N(CC(=O)NCCCc1ccccc1)[C@@H](CO[C@H]1OC(CO)[C@H](O)C(O)C1O)[C@H](O)[C@H](O)CCCCCCCCCCCCCC", "note": "(stereo partly drawn) [IPB 2037]", "values": [
      {"measurement": "stimulation of antigen specific IgG production compared to control aßGalCerMPEG+ova", "setting": "intramuscular (i.m.), FIG. 7", "result": "improved stimulation"},
      {"measurement": "stimulation of antigen specific IgG production compared to control aßGalCerMPEG+ova", "setting": "intranasal (i.n.), FIG. 11", "result": "at least equivalent"}
    ]},
    {"smiles": "CCCCCCCCCCCCCCCCCCCCCCCCCC(=O)N(CC(=O)NCc1ccccc1)[C@@H](CO[C@H]1OC(CO)[C@H](O)C(O)C1O)[C@H](O)[C@H](O)CCCCCCCCCCCCCC", "note": "(stereo partly drawn) [IPB 2042]", "values": [
      {"measurement": "stimulation of antigen specific IgG production compared to control aßGalCerMPEG+ova", "setting": "intramuscular (i.m.), FIG. 7", "result": "improved stimulation"},
      {"measurement": "stimulation of antigen specific IgG production compared to control aßGalCerMPEG+ova", "setting": "intranasal (i.n.), FIG. 11", "result": "improved stimulation"}
    ]},
    {"smiles": "CCCCCCCCCCCCCCCCCCCCCCCCCC(=O)N(CC(=O)NCCOCCOCCOCCOCCOC)[C@@H](CO[C@H]1OC(CO)[C@H](O)[C@H](O)C1O)[C@H](O)[C@H](O)CCCCCCCCCCCCCC", "note": "(stereo partly drawn) [IPB 2044]", "values": [
      {"measurement": "stimulation of antigen specific IgG production compared to control aßGalCerMPEG+ova", "setting": "intramuscular (i.m.), FIG. 7", "result": "at least equivalent"},
      {"measurement": "stimulation of antigen specific IgG production compared to control aßGalCerMPEG+ova", "setting": "intranasal (i.n.), FIG. 11", "result": "at least equivalent"}
    ]}
  ]
}
